Assay results: US10139415B2, “Method for predicting responsiveness to compound inhibiting MAPK signal transduction pathway” (DAIICHI SANKYO COMPANY, LIMITED, priority 2013, dated 2018)
Like-named read-outs stand apart in the source and are kept apart here. Values belong to the molecule of their own block, whether it stands above or below them.

How the values were obtained:
MEK = conditions: cited from earlier work
24 kinds of cell lines = conditions: GI50
Experimental: (§1) A cell growth-suppressive activity test was performed in both of two-dimensional culture and three-dimensional culture. First, a plate for three-dimensional culture was produced. Specifically, poly(2-hydroxyethyl methacrylate) (hereinafter abbreviated as poly-HEMA, manufactured by Sigma) was added to 95% ethanol so that the concentration was 5 mg/mL, and dissolved therein at 37° C. overnight. The solution was used as a poly-HEMA solution. The solution was loaded into a 96-well plate (manufactured by Nunc) at 50 μL/well. The plate was dried at 37° C. to produce a plate for three-dimensional culture coated with poly-HEMA.
The two-dimensional culture (hereinafter sometimes referred to as 2D culture) and the three-dimensional culture (hereinafter sometimes referred to as 3D culture) were performed by seeding the cells in a 96-well plate at 1×10^3 cells/150 μL/well and 2×10^3 cells/75 μL/well, respectively, and performing drug treatment on the following day. […] Cell growth was measured by measuring intracellular ATP amounts at the time of the drug treatment and 72 hours after the drug treatment. […] The total volume of each well was transferred to a white 96-well plate (manufactured by Nunc) and measured for its light emission intensity with a Wallac 1420 multilabel counter (manufactured by Perkin Elmer). […]

SW48 cells [1] = assay: cell growth-suppressive activity test; assay type: cell-based; conditions: 2D and 3D culture, 72 hours, CellTiter-Glo
Experimental: as §1
(§2) The two-dimensional culture (hereinafter sometimes referred to as 2D culture) and the three-dimensional culture (hereinafter sometimes referred to as 3D culture) were performed by seeding the cells in a 96-well plate at 1×10^3 cells/150 μL/well and 2×10^3 cells/75 μL/well, respectively, and performing drug treatment on the following day. The total volume was set to 200 μL in the two-dimensional culture, and the total volume was set to 100 μL in the three-dimensional culture. Cell growth was measured by measuring intracellular ATP amounts at the time of the drug treatment and 72 hours after the drug treatment. Specifically, after the removal of the culture medium at 100 μL/well, CellTiter-Glo (manufactured by Promega) was added at 50 μL/well in the two-dimensional culture, and CellTiter-Glo was added at 50 μL/well in the three-dimensional culture. After the addition, the plate was shaken with a shaker for 2 minutes and left to stand still at room temperature for 10 minutes. The total volume of each well was transferred to a white 96-well plate (manufactured by Nunc) and measured for its light emission intensity with a Wallac 1420 multilabel counter (manufactured by Perkin Elmer). From the resultant light emission amount, a growth ratio (Growth (%)) relative to a non-drug-treated sample after 72 hours was determined using the following mathematical formula 1 and mathematical formula 2.

HCT_116 cells [2] = assay: cell growth-suppressive activity test; assay type: cell-based; conditions: 2D and 3D culture, 72 hours, CellTiter-Glo
Experimental: as §1, §2

SK-MEL-1 cells = assay: cell growth-suppressive activity test; assay type: cell-based; conditions: 2D and 3D culture, 72 hours, CellTiter-Glo
Experimental: as §1, §2

colo-201 cells = assay: cell growth-suppressive activity test; assay type: cell-based; conditions: 2D and 3D culture, 72 hours, CellTiter-Glo
Experimental: as §1, §2

colo-205 cells = assay: cell growth-suppressive activity test; assay type: cell-based; conditions: 2D and 3D culture, 72 hours, CellTiter-Glo
Experimental: as §1, §2

SW48 cells [3] = assay: cell cycle measurement / apoptosis induction (PI staining, flow cytometer); assay type: cell-based; conditions: at the concentration that completely inhibited phosphorylation of ERK, 48 hours
Experimental: (§3) A cell cycle measurement was performed by propidium iodide (PI) staining as described below. First, cells were subjected to drug treatment after 24 hours from seeding thereof in a 6-well plate. After collecting the culture medium and trypsinized cells, they were subjected to centrifugation at 1,000 g for 5 minutes, and the supernatant was removed. 1 mL of PBS^− was added to suspend the cells. The suspension was transferred to a 1.5-mL tube and then subjected to centrifugation treatment at 13,000 g for 1 minute, and the supernatant was removed. 200 μL of PBS^− was added to the residue to suspend the cells, and 1 mL of ice-cold 70% ethanol was added. Then, the cells were vortexed and immobilized at 4° C.
(§4) The immobilized cells were subjected to centrifugation at 1,000 g for 5 minutes, and the supernatant was removed. 1 mL of a PBS^− solution containing 10 μg/mL of RNase was added to the residue to suspend the cells, which was left to stand still at 37° C. for 20 minutes. After that, centrifugation was performed for 5 minutes, and then the supernatant was removed. […] of a PBS^− solution containing PI (50 μg/mL, manufactured by Wako) was added to the residue to suspend the cells. The total volume thereof was passed through a nylon mesh (φ=42 μm) and used as a sample. An intracellular DNA content was detected with PMT4 of a flow cytometer (manufactured by Beckman Coulter) to measure a cell cycle.
(§5) 48 hours after the drug treatment, the cells were collected and subjected to ethanol fixation and PI staining to measure a DNA content with a flow cytometer. […] In addition, the expression amount of a target molecule being phosphorylated was calculated compared to the expression amount of a target molecule to evaluate the influence on a cell cycle at such a concentration of inhibiting the expression of the phosphorylation of the target molecule by 95% or more.
(§6) 48 hours after the drug treatment, the cells were collected and subjected to ethanol fixation and PI staining to measure a DNA content with a flow cytometer. In addition, in order to measure target molecule inhibitory activity in the drug-treated cells, the expression of ERK, phosphorylated ERK, MEK, phosphorylated MEK, and actin in the cells was evaluated by western blotting 24 hours after the drug treatment. In addition, the expression amount of a target molecule being phosphorylated was calculated compared to the expression amount of a target molecule to evaluate the influence of each inhibitor on a cell cycle at such a concentration that the expression of the phosphorylation of the target molecule was inhibited by 95% or more.

HCT_116 cells [4] = assay: as above; assay type: cell-based; conditions: at the concentration that completely inhibited phosphorylation of ERK (MEK and ERK for SB590885), 48 hours
Experimental: as §3, §4, §5, §6

A375 cells = assay: as above; assay type: cell-based
Experimental: as §3, §4, §5, §6

HT29 cells = assay: as above; assay type: cell-based; conditions: at the concentration that completely inhibited phosphorylation of ERK, 48 hours
Experimental: as §3, §4, §5, §6

DLD-1 cells = assay: as above; assay type: cell-based; conditions: at the concentration that completely inhibited phosphorylation of ERK, 48 hours
Experimental: as §3, §4, §5, §6

[5] = test system: malignant melanoma having an active BRAF mutation; conditions: patients with malignant melanoma having an active BRAF mutation, clinical trial; cited from earlier work
[6] = test system: phosphorylation of MEK and ERK; assay: MEK and ERK phosphorylation inhibition by western blotting; assay type: cell-based; conditions: any of the cell lines (A375, HT29, DLD-1, HCT_116, SW48), 0.3-10 μM
Experimental: as §6

SMILES: Cn1cnc2c(F)c(Nc3ccc(Br)cc3Cl)c(C(=O)NOCCO)cc21 [AZD6244]
IC50 (MEK; non-ATP-competitive manner, read-out: MEK inhibition, IC50 value): ~0.012 µM

sensitivity in growth-suppressive activity test (from GI50) (SW48 cells [1]): high sensitivity
sensitivity in growth-suppressive activity test (from GI50) (HCT_116 cells [2]): high sensitivity
sensitivity in growth-suppressive activity test (from GI50) (SK-MEL-1 cells): high sensitivity
sensitivity in growth-suppressive activity test (from GI50) (colo-201 cells): high sensitivity
sensitivity in growth-suppressive activity test (from GI50) (colo-205 cells): high sensitivity
SMILES: N#CC(=C(/N)Sc1ccccc1N)/C(C#N)=C(\N)Sc1ccccc1N [U0126]
tendency of drug sensitivity over the cell line panel compared with SMK-17 (24 kinds of cell lines): 23 out of the 24 kinds of cell lines exhibited a tendency of drug sensitivity similar to that in the case of SMK-17

SMILES: O=C(NOCC1CC1)c1ccc(F)c(F)c1Nc1ccc(I)cc1Cl [PD184352]
apoptosis induction / influence on cell cycle (sub-G1 population) (SW48 cells [3]): apoptosis was induced
apoptosis induction / influence on cell cycle (sub-G1 population) (HCT_116 cells [4]): apoptosis was induced
apoptosis induction / influence on cell cycle (sub-G1 population) (A375 cells; at the concentration that completely inhibited phosphorylation of ERK (MEK and ERK for SB590885), 48 hours): remarkable G1 arrest was induced but no apoptosis was induced
apoptosis induction (A375 cells; concentration higher than that completely inhibiting phosphorylation of ERK): Apoptosis was induced
apoptosis induction / influence on cell cycle (sub-G1 population) (HT29 cells): remarkable G1 arrest was induced but no apoptosis was induced
apoptosis induction / influence on cell cycle (sub-G1 population) (DLD-1 cells): did not exhibit any particular influence

SMILES: O=C(NOC[C@H](O)CO)c1ccc(F)c(F)c1Nc1ccc(I)cc1F [PD0325901]
clinical response, total of a partial response and a complete response [5]: about 10%

SMILES: CNC(=O)c1cc(Oc2ccc(NC(=O)Nc3ccc(Cl)c(C(F)(F)F)c3)cc2)ccn1 [sorafenib]
inhibitory effect on the phosphorylation of MEK and ERK [6]: did not provide complete inhibitory effects
